Assay results from patent US12186311B2, “Antiproliferative compounds and second active agents for combined use” (Celgene Corporation, priority 2019, dated 2025).

Legend:
[1] = test system: K12PE-PR (pomalidomide resistant) cell line; assay: Cell proliferation, combination with Compound 2, combination index (Calcusyn), K12PE-PR; type: cell-based; conditions: 3 days
Protocol: (§1) K12PE (parental) and K12PE-PR (pomalidomide resistant) cell lines were treated with various doses of Compound 2 in combination with increasing doses of a BRD4 inhibitor JQ1 for 3 days. Cell proliferation was analyzed using thymidine incorporation assays. Combination index values were calculated by Calcusyn and values below 10^0 represented the synergy between the combination treatments. The results are shown in FIG. 3A (K12PE), FIG. 3B (K12PE combination index), FIG. 3C (K12PE-PR), and FIG. 3D (K12PE-PR combination index), respectively.
(§2) AMO1, AMO1-PR (pomalidomide resistant), K12PE and K12PE-PR (pomalidomide resistant) cell lines were treated with increasing doses of Compound 2 in combination with an AURKB inhibitor (AZD 1152). Changes in cell proliferation were studied in response to monotherapy and combinations at Day 3 post treatment. Combination index values were calculated by Calcusyn and values below […] represented the synergy between the combination treatments. AUKKB is one of the key target gene of MDMS8 (molecularly defined myeloma segment 8), a high risk cluster identified from myeloma genome project. The results are shown in FIG. 8A (AMO1 combination index), FIG. 8B (K12PE combination index), FIG. 8C (AMO1-PR combination index), and FIG. 8D (K12PE-PR combination index), respectively. […]

[2] = test system: K12PE (parental) cell line; assay: Cell proliferation, combination with Compound 2, combination index (Calcusyn), K12PE; type: cell-based; conditions: 3 days
Protocol: as §1, §2

OPM-2.P10 cells = assay: 7 day combination assay (Annexin V/7-AAD flow cytometry, fractional product method), OPM.2-P10; type: cell-based; conditions: OPM-2.P10, 7 day assay
Protocol: (§3) Additional second agents, including DNA methyltransferase inhibitors, EZH2 inhibitors, DOT1L inhibitors, and BET inhibitors were selected for combination studies with Compound 2 in relapsed refractory multiple myeloma. Five MM cell lines with acquired or inherent resistance to lenalidomide or pomalidomide were included in the studies (OPM.2-P10, H929-1051, KMS12BM PR, L363, and JJN3). The effect of Compound 2 in combination with these second agents on MM cells were assessed in a 7 day in vitro assay. The MM cells were seeded at densities according to the growth rate of each cell line with the aim of achieving 50-100K cells by Day 7. The assay was performed in a 96-well plate. All MM cell lines were cultured in an incubator at 37° C. with 5% CO2 using the indicated cell culture media containing 1×Penicillin-Streptomycin. The MM cells were primed for 3 days with these second agents at the single agent IC50 value. […] Compound 2 was added to the cells at a dose range of 30 μM-0.00018 μM, depending on the cell line, for a 8 point dose response curve. The cells were incubated at 37° C. for an additional 4 days. At the end of the 7 day treatment, the MM cells were stained with Annexin V and 7-AAD and analyzed on a flow cytometer. Live MM cells were identified as Annexin V and 7-AAD double negative cells. […]

H929-1051 cells = assay: 7 day combination assay (Annexin V/7-AAD flow cytometry, fractional product method), H929-1051; type: cell-based; conditions: H929-1051, 7 day assay
Protocol: as §3

[3] = test system: acute myeloid leukemia (AML); conditions: administered alone; cited from earlier work
[4] = test system: AMO1-PR (pomalidomide resistant) cell line; assay: Cell proliferation, combination with Compound 2, combination index (Calcusyn), AMO1-PR; type: cell-based; conditions: 3 days
Protocol: (§4) AMO1 (parental) and AMO1-PR (pomalidomide resistant) cell lines were treated with various doses of Compound 2 in combination with increasing doses of an MEK inhibitor trametinib for 3 days. Cell proliferation was analyzed using thymidine incorporation assays. Combination index values were calculated by Calcusyn and values below 10^0 represented the synergy between the combination treatments. The results are shown in FIG. 4A (AMO1), FIG. 4B (AMO1 combination index), FIG. 4C (AMO1-PR), and FIG. 4D (AMO1-PR combination index), respectively.
(§5) AMO1 and AMO1-PR (pomalidomide resistant) cell lines were treated with increasing doses of Compound 2 in combination with a PLK1 inhibitor (BI2536). Changes in cell proliferation were studied in response to monotherapy and combinations at Day 3 post treatment. Combination Index was calculated using Calcusyn based method. Combination index values were calculated by Calcusyn and values below 10^0 represented the synergy between the combination treatments. PLK1 is one of the key target gene of MDMS8 (molecularly defined myeloma segment 8), a high risk cluster identified from myeloma genome project. The results are shown in FIG. 6A (AMO1), FIG. 6B (AMO1 combination index), FIG. 6C (AMO1-PR), and FIG. 6D (AMO1-PR combination index), respectively. Inhibition of MDMS8 target gene PLK1 with Compound 2 is synergistic in AMO1 and AMO1-PR cells.
(§6) AMO1 and AMO1-PR (pomalidomide resistant) cell lines were treated with increasing doses of Compound 2 in combination with an NEK2 inhibitor (JH295). Changes in cell proliferation were studied in response to monotherapy and combinations at Day 3 post treatment. Combination index values were calculated by Calcusyn and values below 10^0 represented the synergy between the combination treatments. NEK2 is one of the key target gene of MDMS8 (molecularly defined myeloma segment 8), a high risk cluster identified from myeloma genome project. The results are shown in FIG. 7A (AMO1 combination index) and FIG. 7B (AMO1-PR combination index), respectively. Inhibition of MDMS8 target gene NEK2 with Compound 2 is synergistic in AMO1 and AMO1-PR cells.
(§7) AMO1, AMO1-PR (pomalidomide resistant), K12PE and K12PE-PR (pomalidomide resistant) cell lines were treated with increasing doses of Compound 2 in combination with an AURKB inhibitor (AZD 1152). […] Combination index values were calculated by Calcusyn and values below […] represented the synergy between the combination treatments. […]
(§8) AMO1, AMO1-PR (pomalidomide resistant) cell lines were treated with increasing doses of Compound 2 in combination with a BIRC5 inhibitor (YM155). […] Combination index values were calculated by Calcusyn and values below 10^0 represented the synergy between the combination treatments. […]

[5] = test system: AMO1 (parental) cell line; assay: Cell proliferation, combination with Compound 2, combination index (Calcusyn), AMO1; type: cell-based; conditions: AMO1, 3 days
Protocol: as §4, §5, §6, §7, §8

H929 cell line = assay: Thymidine incorporation, combination with Compound 2, combination index (Calcusyn), H929; type: cell-based; conditions: H929, 3 days
Protocol: H929 cell line was treated with various doses of Compound 2 in combination with increasing doses of an EZH2 inhibitor UNC1999 for 3 days. Cell proliferation was analyzed using thymidine incorporation assays. Combination index values were calculated by Calcusyn and values below 10^0 represented the synergy between the combination treatments. The results are shown in FIG. 5A (H929) and FIG. 5B (H929 combination index).

[6] = test system: non-selective α1 adrenergic receptor in rat cerebral cortex; assay: α1 adrenergic receptor binding at 10 μM ([3H]prazosin); conditions: inhibition of control [3H]prazosin binding
Protocol: (§9) α1 Adrenergic and Dopamine D2 Receptors. Methods: Binding and functional assays for al adrenergic and dopamine D2 receptors were performed by Eurofins Cerep according to their methods.
α1 Adrenergic Receptor. Binding at 10 μM. The binding assay evaluated the affinity of test article for the non-selective al adrenergic receptor in rat cerebral cortex. Membrane homogenates of cerebral cortex were incubated in duplicate for 60 minutes at room temperature with 0.25 nM [^3H]prazosin in the absence or presence of test articles at 10 μM. After the incubation period, samples were filtered through glass fiber filters, the filters dried and then counted for radioactivity using a scintillation counter. Results are expressed as mean percent inhibition of control radioligand binding.

[7] = target: T1, dopamine D2S receptor in transfected HEK-293 cells (Homo sapiens, UniProt P14416); assay: Dopamine D2S receptor binding at 10 μM; conditions: read-out: Dopamine D2S % Inh. (@10 uM)
T1 construct: host or cells: HEK-293
Protocol: as §9
Dopamine D2 Receptor. Binding at 10 μM. The binding assay evaluated the affinity of test articles for the dopamine D2 receptor in transfected human embryonic kidney (HEK)-293 cells. For determining the binding in the D2s receptor assay, test article was incubated with 0.3 nM [^3H] methylspiperone or 1 nM [^3H] 7-hydroxy-2-N,N-dipropylaminotetralin (7-OH-DPAT). [^3H] Methylspiperone at 0.3 nM also was used as control ligand in the D2L binding assay. Cell membrane homogenates were incubated in duplicate at room temperature for 60 minutes with ligand in the absence or presence of test articles at 10 μM. After the incubation period, samples were filtered through glass fiber filters, the filters dried and then counted for radioactivity using a scintillation counter. Results are expressed as mean percent inhibition of control radioligand binding.

T1 sequence (P14416 1-414 isoform P14416-2): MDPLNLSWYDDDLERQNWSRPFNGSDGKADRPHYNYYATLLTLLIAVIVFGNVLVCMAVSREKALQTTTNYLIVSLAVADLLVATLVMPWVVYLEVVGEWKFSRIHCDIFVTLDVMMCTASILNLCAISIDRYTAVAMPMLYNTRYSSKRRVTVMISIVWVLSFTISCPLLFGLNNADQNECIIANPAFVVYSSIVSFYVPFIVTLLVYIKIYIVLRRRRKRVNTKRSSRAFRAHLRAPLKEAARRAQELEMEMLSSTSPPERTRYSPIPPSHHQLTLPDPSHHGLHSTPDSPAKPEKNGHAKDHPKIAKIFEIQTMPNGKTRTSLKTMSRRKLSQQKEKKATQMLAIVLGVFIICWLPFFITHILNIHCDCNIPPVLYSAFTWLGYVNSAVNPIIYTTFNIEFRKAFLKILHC

Molecule: Cc1sc2c(c1C)C(c1ccc(Cl)cc1)=N[C@@H](CC(=O)OC(C)(C)C)c1nnc(C)n1-2 [JQ1, (S)-tert-butyl 2-(4-(4-chlorophenyl)-2,3,9-trimethyl-6H-thieno[3,2-f][1,2,4]triazolo[4,3-a][1,4]diazepin-6-yl)acetate]
- synergy with Compound 2 (combination index) [1]: synergistic activity with Compound 2
- synergy with Compound 2 (combination index) [2]: synergistic activity with Compound 2

Molecule: Cn1cc(-c2cc(S(C)(=O)=O)ccc2OCC2CC2)c2ccccc2c1=O [Compound C, 4-[2-(cyclopropylmethoxy)-5-(methanesulfonyl)phenyl]-2-methylisoquinolin-1(2H)-one]
- synergy in combination with Compound 2 (OPM-2.P10 cells): significant synergy
- synergy in combination with Compound 2 (H929-1051 cells): significant synergy

Molecule: CT-011: anti-PD-1 antibody, a humanized antibody
- response in treating acute myeloid leukemia (AML) at relapse [3]: failed to show response

Molecule: CCN(CCCOc1ccc2c(Nc3cc(CC(=O)Nc4cccc(F)c4)[nH]n3)ncnc2c1)CCOP(=O)(O)O [AZD 1152]
- synergy with Compound 2 (combination index) [1]: synergistic
- synergy with Compound 2 (combination index) [4]: synergistic
- synergy with Compound 2 (combination index) [2]: synergistic
- synergy with Compound 2 (combination index) [5]: synergistic

Molecule: CCCc1cc(C)[nH]c(=O)c1CNC(=O)c1cc(-c2ccc(N3CCN(C(C)C)CC3)nc2)cc2c1cnn2C(C)C [UNC1999, 1-Isopropyl-6-(6-(4-isopropylpiperazin-1-yl)pyridin-3-yl)-N-((6-methyl-2-oxo-4-propyl-1,2-dihydropyridin-3-yl)methyl)-1H-indazole-4-carboxamide]
- synergy with Compound 2 (combination index) (H929 cell line): synergistic activity with Compound 2

Molecule: O=C1CCC(N2Cc3c(OCc4ccc(CN5CCN(c6ccc(F)cc6F)CC5)cc4)cccc3C2=O)C(=O)N1 (racemic) [Compound A, 3-(4-((4-((4-(2,4-difluorophenyl)piperazin-1-yl)methyl)benzyl)oxy)-1-oxoisoindolin-2-yl)piperidine-2,6-dione]
- Adrenergic α1 % Inh. (@10 uM) [6]: 102%
- inhibition at 10 µM [7]: 99%

Molecule: N#Cc1ccc(N2CCN(Cc3ccc(COc4cccc5c4CN(C4CCC(=O)NC4=O)C5=O)cc3)CC2)c(F)c1 (racemic) [Compound 1, 4-(4-(4-(((2-(2,6-dioxopiperidin-3-yl)-1-oxoisoindolin-4-yl)oxy)methyl)benzyl)piperazin-1-yl)-3-fluorobenzonitrile]
- Adrenergic α1 % Inh. (@10 uM) [6]: 67%
- inhibition at 10 µM [7]: 55%

Molecule: N#Cc1ccc(N2CCN(Cc3ccc(COc4cccc5c4CN([C@H]4CCC(=O)NC4=O)C5=O)cc3)CC2)c(F)c1 [Compound 2, (S)-4-(4-(4-(((2-(2,6-dioxopiperidin-3-yl)-1-oxoisoindolin-4-yl)oxy)methyl)benzyl)piperazin-1-yl)-3-fluorobenzonitrile]
- Adrenergic α1 % Inh. (@10 uM) [6]: 62%
- inhibition at 10 µM [7]: 52%
